# Experimental data as given in US5780254A, “Method for detection of herbicides” (Sandoz Ltd, priority 1996, dated 1998).
# Like-named read-outs stand apart in the source and are kept apart here.
# Assays:
# Arabidopsis seeds [1] = experiment: Arabidopsis reversal assay with antidote compounds; type: in vivo; details: for Growth, % of Control: probe compound at 1.5× lethal concentration; for growth without the antidote (in words): probe compound alone, no antidote
# Procedure: The solutions are filter sterilized prior to addition. FIG. 4 represents a typical set up in a reversion assay for discovering inhibitors of AMP biosynthesis.
# The left side (columns 1-3) of the 24-well microtiter plate is designed for controls, and the right side (columns 4-6) are designated for one probe compound. […] Rows B,C and D are supplemented with three doses of an antidote for the control and probe compound. […] The three doses are 50,100 and 150 μl respectively.
# Forty ml of Arabidopsis growth media as described in Example 1 is sterilized and allowed to cool to about 45° C. A probe compound (at 1.5× lethal concentration) is added to columns 4 through 6 (right half of the plate). Media is distributed at 1.0 ml per well to all wells. Sterile seeds are added to each well as described above. As in Example 1, the plate is incubated and growth is scored.
# [2] = molecular target: T1, adenylosuccinate synthetase (ADSS) isolated from maize (Zea mays, UniProt O24578); experiment: ADSS enzyme assay (HPLC and spectrophotometric), maize ADSS; type: biochemical; details: for product formation by ADSS: compound at 100 μM, maize ADSS (not shown); for time course of ADSS inhibition: spectrophotometric assay (FIG. 7, FIG. 8)
# T1 construct: ADSS is obtained from 4-5 day old, etiolated seedlings of Zea mays; from tissue; host or cells: 4-5 day old etiolated maize seedlings
# T1 sequence (O24578 45-484): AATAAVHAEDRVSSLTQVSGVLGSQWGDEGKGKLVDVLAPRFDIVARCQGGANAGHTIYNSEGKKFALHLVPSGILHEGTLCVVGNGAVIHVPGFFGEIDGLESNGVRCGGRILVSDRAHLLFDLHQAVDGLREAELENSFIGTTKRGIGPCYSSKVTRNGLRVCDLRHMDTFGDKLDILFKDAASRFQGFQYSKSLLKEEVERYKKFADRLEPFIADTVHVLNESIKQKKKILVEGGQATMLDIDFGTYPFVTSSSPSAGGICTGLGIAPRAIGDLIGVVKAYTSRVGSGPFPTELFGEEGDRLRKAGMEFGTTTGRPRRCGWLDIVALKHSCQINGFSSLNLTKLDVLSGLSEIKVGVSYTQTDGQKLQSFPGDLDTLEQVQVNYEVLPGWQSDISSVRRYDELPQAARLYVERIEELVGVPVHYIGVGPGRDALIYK
# Procedure: (§1) ADSS is obtained from 4-5 day old, etiolated seedlings of Zea mays. Seedlings are homogenized in a Waring blender with an equal volume (grams of tissue=mls of buffer) of extraction buffer containing 50 mM EPPS, pH 7.5, 5 mM MgCl2, 0.1 mM EDTA, 5 mM sodium bisulfite, 5 mM DTT, 0.1 mM phenylmethanesulfonyl fluoride and 10% glycerol. The extract is expressed through Miracloth (Calbiochem, La Jolla, Calif.) sandwiched between layers of cheesecloth. To precipitate phenolics and nucleic acids, 0.2 to 0.4% w/v protamine sulfate is added to the extract. The extract is stirred for 30 minutes, and then centrifuged at 45,000×G for 60 minutes. The resulting supernatant is fractionated with ammonium sulfate. Proteins are retained which precipitate at concentrations of ammonium sulfate greater than 45% saturation, but less than 55% saturation. Similar methods are used to isolate ADSS from wheat germ, E. coli and rat liver. ADSS activity is further purified by subjecting the preparation to DEAE cellulose chromatography. The column is equilibrated with chromatography buffer consisting of 50 mM EPPS, pH 7.5, 10% glycerol, 0.1 mM EDTA, 5 mM MgCl2 and 1 mM DTT. After loading the enzyme preparation, the column is washed with two bed volumes of the chromatography buffer, then eluted with a linear, 10-bed-volume gradient of 0 to 0.4M KCl dissolved in the same buffer. The peak of ADSS activity elutes at a KCl concentration of about 150 mM. Fractions containing activity are pooled and the proteins concentrated by ultrafiltration. At this stage, the enzyme is suitable for high capacity screening tests that are designed to discover inhibitory compounds. Alternatively, hydrophobic interaction chromatography can be used instead of DEAE-cellulose. This material is optionally further purified by passage through a column of Sephadex G-75 equilibrated with the chromatography buffer described above. The peak of ADSS activity elutes at a retention volume corresponding to a molecular weight of approximately 50,000 Da.
# ADSS is assayed by anion exchange HPLC and by a continuous spectrophotometric assay. For the former, enzyme is diluted appropriately with 50 mM EPPS, pH 8.3, 10% ethylene glycol, 10 mM potassium phosphate and 1 mM MgCl2 to a volume of 92 μL. […] Reactions are stopped by adding 1 μL of 4N HCl. 95 μL of the reaction mixture is injected to a Hamilton PRP-X100 column equilibrated with 3% acetonitrile. Reactants and products are eluted with a convex gradient (Curve=-2) to 6% 1M potassium phosphate, pH 7, and 12% 2M KCl delivered during a span of 30 min by a Perkin-Elmer 410 BIO pump. The column eluate is monitored at 270 nm using a Perkin-Elmer LC 480 diode array detector. Integrated peaks are quantified from standard curves. Identity of the products of the ADSS reaction, GDP and adenylosuccinate, are determined by comparing their retention times and spectra with those of authentic standards, purchased from Sigma Chemical Co.
# For the spectrophotometric assay, reaction mixtures are the same as above, except that the volume is doubled. […] The optical density increases as AS is formed. […] This method of quantification was validated using the HPLC method.
# ADSS from wheat germ = molecular target: T2, ADSS from wheat germ (Triticum aestivum, UniProt O24396); experiment: ADSS enzyme assay, wheat germ ADSS; type: biochemical; details: for product formation by ADSS: compound at 100 μM, wheat germ ADSS (not shown)
# T2 construct: from tissue
# T2 sequence (O24396 whole entry): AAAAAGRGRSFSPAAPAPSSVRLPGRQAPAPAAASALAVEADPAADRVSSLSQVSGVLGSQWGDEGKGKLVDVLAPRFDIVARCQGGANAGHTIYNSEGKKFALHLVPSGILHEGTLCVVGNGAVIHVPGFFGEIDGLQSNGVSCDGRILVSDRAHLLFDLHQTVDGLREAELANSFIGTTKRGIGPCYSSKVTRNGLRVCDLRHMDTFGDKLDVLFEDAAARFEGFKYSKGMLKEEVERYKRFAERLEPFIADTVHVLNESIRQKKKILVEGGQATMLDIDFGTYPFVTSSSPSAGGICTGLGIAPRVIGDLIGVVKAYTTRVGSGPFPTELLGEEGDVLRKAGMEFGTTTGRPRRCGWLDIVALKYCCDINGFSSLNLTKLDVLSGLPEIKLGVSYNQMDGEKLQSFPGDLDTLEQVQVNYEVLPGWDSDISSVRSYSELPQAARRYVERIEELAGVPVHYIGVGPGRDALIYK
# Procedure: as §1, with “Fractions containing activity are pooled and the proteins concentrated by ultrafiltration. At this stage, the enzyme is suitable for high capacity screening tests that are designed to discover inhibitory compounds. Alternatively, hydrophobic interaction chromatography can be used instead of DEAE-cellulose. This material is optionally further purified by passage through a column of Sephadex G-75 equilibrated with the chromatography buffer described above. The peak of ADSS activity elutes at a retention volume corresponding to a molecular weight of approximately 50,000 Da.” left out
# (§2) ADSS is assayed by anion exchange HPLC and by a continuous spectrophotometric assay. […] The column eluate is monitored at 270 nm using a Perkin-Elmer LC 480 diode array detector. Integrated peaks are quantified from standard curves. Identity of the products of the ADSS reaction, GDP and adenylosuccinate, are determined by comparing their retention times and spectra with those of authentic standards, purchased from Sigma Chemical Co.
# (§3) For the spectrophotometric assay, reaction mixtures are the same as above, except that the volume is doubled. […] This method of quantification was validated using the HPLC method.
# ADSS from E. coli = molecular target: T3, ADSS from E. coli (Escherichia coli, UniProt P0A7D4); experiment: ADSS enzyme assay, E. coli ADSS; type: biochemical; details: E. coli ADSS (FIG. 6); for product formation by ADSS: compound at 100 μM
# T3 construct: endogenous in cells; host or cells: E. coli
# T3 sequence (P0A7D4 2-432): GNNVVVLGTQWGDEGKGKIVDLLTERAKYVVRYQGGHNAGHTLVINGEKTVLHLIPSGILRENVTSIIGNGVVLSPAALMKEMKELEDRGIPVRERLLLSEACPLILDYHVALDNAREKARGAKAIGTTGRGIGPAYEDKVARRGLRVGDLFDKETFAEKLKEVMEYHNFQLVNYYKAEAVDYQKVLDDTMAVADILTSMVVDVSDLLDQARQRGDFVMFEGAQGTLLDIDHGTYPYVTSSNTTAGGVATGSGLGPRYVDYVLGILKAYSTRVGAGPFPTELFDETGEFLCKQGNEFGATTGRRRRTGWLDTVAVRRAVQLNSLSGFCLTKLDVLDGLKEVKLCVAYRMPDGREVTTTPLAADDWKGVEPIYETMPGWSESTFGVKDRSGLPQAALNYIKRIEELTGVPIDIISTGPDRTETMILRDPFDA
# Procedure: as §1
# as §2, with “assay. For the former, enzyme is diluted appropriately with 50 mM EPPS, pH 8.3, 10% ethylene glycol, 10 mM potassium phosphate and 1 mM MgCl2 to a volume of 92 μL.” for “assay.”
# as §3
# ADSS from rat liver = molecular target: T4, ADSS from rat liver (Rattus norvegicus, UniProt D4AEP0); experiment: ADSS enzyme assay, rat liver ADSS; type: biochemical; details: rat liver ADSS (FIG. 6); for product formation by ADSS: compound at 100 μM
# T4 construct: from tissue; host or cells: rat liver
# T4 sequence (D4AEP0 1-456): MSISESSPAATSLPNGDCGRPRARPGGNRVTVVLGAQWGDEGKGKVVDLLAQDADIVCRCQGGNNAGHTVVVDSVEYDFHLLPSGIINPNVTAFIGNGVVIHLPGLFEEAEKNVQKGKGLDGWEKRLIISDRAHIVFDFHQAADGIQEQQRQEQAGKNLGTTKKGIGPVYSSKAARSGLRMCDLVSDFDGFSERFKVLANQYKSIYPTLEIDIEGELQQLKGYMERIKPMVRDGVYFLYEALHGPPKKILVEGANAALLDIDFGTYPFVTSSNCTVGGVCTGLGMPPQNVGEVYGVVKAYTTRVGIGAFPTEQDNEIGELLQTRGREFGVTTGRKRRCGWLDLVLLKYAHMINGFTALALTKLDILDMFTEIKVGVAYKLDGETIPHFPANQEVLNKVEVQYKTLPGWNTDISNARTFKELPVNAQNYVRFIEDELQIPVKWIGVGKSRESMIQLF
# Procedure: as §1
# as §2, with “assay. For the former, enzyme is diluted appropriately with 50 mM EPPS, pH 8.3, 10% ethylene glycol, 10 mM potassium phosphate and 1 mM MgCl2 to a volume of 92 μL.” for “assay.”
# as §3
# [3] = test system: adenylosuccinate lyase (ASL); experiment: Assay of adenylosuccinate lyase (ASL); type: biochemical, Zea mays; details: 1 mM concentration (data not shown)
# Procedure: ASL is obtained from three day old, etiolated seedlings of Zea mays (maize). Seedlings are homogenized in a Waring blender with an equal volume (grams of tissue=mls of buffer) of 20 mM potassium phosphate buffer (KP buffer) containing 1 mM DTT. The slurry is then filtered through a cheese cloth and the filtrate subjected to 100,000×g centrifugation for 60 minutes. The clear supernatant is used for assaying ASL activity.
# A typical reaction mixture in 1 mL contains 100-300 μL of ASL and 0.15 mM adenylosuccinate (30 μL of a 5 mM solution in KP buffer), the rest being KP buffer. Disappearance of absorbance at 280 nm is followed as a function of time to determine the rate of ASL activity. Inhibitors when needed are included to a final concentration of 1 mM in the assay mixture to observe the effect on the ASL activity. Compounds hydantocidin, N-acetylhydantocidin, NAP-H and hadacidin had no effect on the rate of ASL activity at 1 mM concentration (data not shown).
# [4] = molecular target: T1, adenylosuccinate synthetase (ADSS) isolated from maize; details: known from the literature; cited from earlier work
# Arabidopsis seeds [5] = experiment: Arabidopsis bioassay, determination of the lethal concentration (LC 90); details: read-out: lethal concentration (LC 90)
# glutamine synthetase = details: background statement; cited from earlier work
# [6] = background statement; cited from earlier work
# [7] = antidote Adenosine + Guanosine 0.5-5.0 mM
# [8] = antidote Cytidine + Uridine 0.5-5.0 mM
# [9] = antidote Hypoxanthine 0.5-5.0 mM
# [10] = concentration causing 90% or greater growth inhibition vs control, 7 days, about 28° C.
Compound,"Growth, % of Control (Arabidopsis seeds [1]; No antidote, 0 mM) [%]","Growth, % of Control (Arabidopsis seeds [1]; antidote ADP 0.5-5.0 mM) [%]","Growth, % of Control (Arabidopsis seeds [1]; antidote AMP 0.5-5.0 mM) [%]","Growth, % of Control (Arabidopsis seeds [1]; antidote ATP 0.5-5.0 mM) [%]","Growth, % of Control (Arabidopsis seeds [1]; antidote Adenine 0.5-5.0 mM) [%]","Growth, % of Control (Arabidopsis seeds [1]; antidote Adenosine 0.5-5.0 mM)","Growth, % of Control (Arabidopsis seeds [1]; [7]) [%]","Growth, % of Control (Arabidopsis seeds [1]; [8]) [%]","Growth, % of Control (Arabidopsis seeds [1]; antidote Guanine 0.5-5.0 mM) [%]","Growth, % of Control (Arabidopsis seeds [1]; antidote Guanosine 0.5-5.0 mM) [%]","Growth, % of Control (Arabidopsis seeds [1]; [9]) [%]","Growth, % of Control (Arabidopsis seeds [1]; antidote IMP 0.5-5.0 mM) [%]",growth without the antidote (in words) (Arabidopsis seeds [1]),product formation by ADSS [2],time course of ADSS inhibition [2],product formation by ADSS (ADSS from wheat germ),product formation by ADSS (ADSS from E. coli),product formation by ADSS (ADSS from rat liver),effect on the rate of ASL activity [3],inhibition of ADSS (in words) (ADSS from E. coli),further results
O=CN(O)CC(=O)O [hadacidin],0,100,100,40,55,80-100%,80,0,0,0,0,5,Growth is not observed,Product is not formed,not time dependent,Product is not formed,Product is not formed,Product is not formed,no effect,–,"IC50 ([2]; ""under these conditions"", ADSS source not given): 3 µM; mode of ADSS inhibition [4]: competitively with aspartate"
N-acetyl hydantocidin,0,100,100,40,60,80-100%,80,0,0,0,0,5,Growth is not observed,–,–,–,–,–,no effect,neither the E. coli nor the rat liver ADSS are inhibited,inhibition of ADSS (in words) (ADSS from rat liver): neither the E. coli nor the rat liver ADSS are inhibited; IC90 (Arabidopsis seeds [5]; [10]): ~12 µM
"O=C1NC(=O)C2(N1)O[C@H](CO)[C@@H](O)[C@H]2O (single isomer, unassigned) [hydantocidin, Hydantocidin]",0,100,100,40,60,80-100%,80,0,0,0,0,5,Growth is not observed,–,–,–,–,–,no effect,neither the E. coli nor the rat liver ADSS are inhibited,"reversal of growth inhibition (in words) (Arabidopsis seeds [1]; antidote IMP, doses 50, 100 and 150 μl): did not reverse growth inhibition; reversal of growth inhibition (in words) (Arabidopsis seeds [1]; antidotes adenosine and AMP, rows B and C, wells 4 through 6): Complete growth is observed; reversal of inhibition at the lethal concentration (in words) (Arabidopsis seeds [1]; in the presence of AMP, ADP or adenine): completely reversed; inhibition of ADSS (in words) (ADSS from rat liver): neither the E. coli nor the rat liver ADSS are inhibited; inhibition of glutamine synthetase (in words) (glutamine synthetase): not inhibited; reversal of growth inhibition by aromatic amino acids (in words) [6]: not reversed; IC90 (Arabidopsis seeds [5]; Arabidopsis thaliana, 168 h): ~2 µM"
"COc1c(C)c2c(c(O)c1C/C=C(\C)CCC(=O)O)C(=O)OC2 [MPA, Mycophenolic Acid]",0,–,5,–,0,5%,–,–,40,80,–,5,Growth is not observed,–,–,–,–,–,–,–,"Growth, % of Control (Arabidopsis seeds [1]; antidote GMP 0.5-5.0 mM): 90%"
"NC(=O)c1ncn([C@@H]2O[C@H](CO)[C@@H](O)[C@H]2O)n1 [TCR, 1,2,4-triazole-3-carboxamide-1-ribose]",–,–,–,–,–,–,–,–,–,–,–,–,Growth is not observed,–,–,–,–,–,–,–,–
5'-Phospho-N-acetyl-hydantocidin [NAP-H],0,100,100,40,65,80-100%,80,0,0,0,0,5,Growth is not observed,Product is not formed,"Inhibition is initially weak, but becomes greater",Product is not formed,Product is not formed,Product is not formed,no effect,–,"inhibition of ADSS (in words) ([2]; 5 μM, spectrophotometric assay): is confirmed; reversibility of ADSS inhibition ([2]; enzyme incubated with 4 μM for 10 min, then Sephadex G-25): inhibition is reversible; inhibition of ADSS (in words) (ADSS from wheat germ; 10 μM, crude (desalted) extract from wheat germ, HPLC assay (FIG. 5)): Inhibition of ADSS; IC90 (Arabidopsis seeds [5]; [10]): ~8 µM"
